Data taken from patent US11040959B2, “Diprovocims: a new and potent class of TLR agonists” (The Scripps Research Institute, priority 2016, dated 2021).
Where two headings read alike, the source gives them in different places.

What was measured:
[1] = system: differentiated human THP-1 cells; experiment: stimulated release of TNF-α from differentiated human THP-1 cells (ELISA, dose-response); type: cell-based; details: for EC50: Homo sapiens
In short: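 Human THP-1 cells were PMA-differentiated toward macrophages, and stimulated TNF-α release was measured by ELISA. EC50 values were taken from dose-response curves.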

[2] = system: mouse macrophages; experiment: stimulated release of TNF-α from mouse macrophages; type: cell-based; details: for EC50: Macrophage
In short: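 EC50 derived from dose-response curves for stimulated TNF-α release from mouse macrophages.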

[3] = THP-1, table of 133-139 (two lipid side chains), human THP-1 cells, read-out: EC50 (nM) (THP-1)
[4] = table of 133-139 (two lipid side chains), mouse macrophages, read-out: EC50 (nM) (mouse)
[5] = THP-1, table of 140-146 (four lipid side chains), human THP-1 cells, read-out: EC50 (nM) (THP-1)
[6] = table of 140-146 (four lipid side chains), mouse macrophages, read-out: EC50 (nM) (mouse)
[7] = THP-1, table of functionalized derivatives 147-151, human THP-1 cells, read-out: EC50 (nM) (THP-1)
[8] = table of functionalized derivatives 147-151, mouse macrophages, read-out: EC50 (nM) (mouse)

SMILES	EC50 [1, 3]	EC50 [2, 4]	EC50 [1, 5]	EC50 [2, 6]	also measured
CCCCCCCCCCCCCCCCNC(=O)[C@@H]1CN(C(=O)c2ccc(C(=O)N3C[C@@H](C(=O)NCCCCCCCCCCCCCCCC)[C@H](C(=O)NCCCCCCCCCCCCCCCC)C3)cc2)C[C@H]1C(=O)NCCCCCCCCCCCCCCCC [Compound 140, (3S,3′S,4S,4′S)-1,1′-Terephthaloylbis(N^3,N^4-dihexadecylpyrrolidine-3,4-dicarboxamide)]	–	–	> 5000 nM	> 5000 nM	–
CCCCCCCCCCCCCCNC(=O)[C@@H]1CN(C(=O)c2ccc(C(=O)N3C[C@@H](C(=O)NCCCCCCCCCCCCCC)[C@H](C(=O)NCCCCCCCCCCCCCC)C3)cc2)C[C@H]1C(=O)NCCCCCCCCCCCCCC [Compound 141, (3S,3′S,4S,4′S)-1,1′-Terephthaloylbis(N^3,N^4-ditetradecylpyrrolidine-3,4-dicarboxamide)]	–	–	> 5000 nM	> 5000 nM	–
CCCCCCCCCCCCNC(=O)[C@@H]1CN(C(=O)c2ccc(C(=O)N3C[C@@H](C(=O)NCCCCCCCCCCCC)[C@H](C(=O)NCCCCCCCCCCCC)C3)cc2)C[C@H]1C(=O)NCCCCCCCCCCCC [Compound 142, (3S,3′S,4S,4′S)-1,1′-Terephthaloylbis(N^3,N^4-didodecylpyrrolidine-3,4-dicarboxamide)]	–	–	> 5000 nM	> 5000 nM	–
CCCCCCCCNC(=O)[C@@H]1CN(C(=O)c2ccc(C(=O)N3C[C@@H](C(=O)NCCCCCCCC)[C@H](C(=O)NCCCCCCCC)C3)cc2)C[C@H]1C(=O)NCCCCCCCC [Compound 144, (3S,3′S,4S,4′S)-1,1′-Terephthaloylbis(N^3,N^4-dioctylpyrrolidine-3,4-dicarboxamide)]	–	–	> 5000 nM	> 5000 nM	–
CCCCCCNC(=O)[C@@H]1CN(C(=O)c2ccc(C(=O)N3C[C@@H](C(=O)NCCCCCC)[C@H](C(=O)NCCCCCC)C3)cc2)C[C@H]1C(=O)NCCCCCC [Compound 145, (3S,3′S,4S,4′S)-1,1′-Terephthaloylbis(N^3,N^4-dihexylpyrrolidine-3,4-dicarboxamide)]	–	–	> 5000 nM	> 5000 nM	–
CCCCNC(=O)[C@@H]1CN(C(=O)c2ccc(C(=O)N3C[C@@H](C(=O)NCCCC)[C@H](C(=O)NCCCC)C3)cc2)C[C@H]1C(=O)NCCCC [Compound 146, (3S,3′S,4S,4′S)-1,1′-Terephthaloylbis(N^3,N^4-dibutylpyrrolidine-3,4-dicarboxamide)]	–	–	> 5000 nM	> 5000 nM	–
CC(C)(C)OC(=O)COc1cc(C(=O)N2C[C@@H](C(=O)N[C@H]3C[C@@H]3c3ccccc3)[C@H](C(=O)N[C@H]3C[C@@H]3c3ccccc3)C2)ccc1C(=O)N1C[C@@H](C(=O)N[C@H]2CC2c2ccccc2)[C@H](C(=O)N[C@H]2C[C@@H]2c2ccccc2)C1 (stereo partly drawn) [Compound 147, tert-Butyl 2-(2,5-Bis((3S,4S)-3,4-bis(((1S,2R)-2-phenylcyclopropyl)carbamoyl)-pyrrolidine-1-carbonyl)phenoxy)acetate]	–	–	–	–	EC50 [1, 7]: 40 nM; EC50 [2, 8]: 260 nM
CC(C)(C)OC(=O)CCOCCOCCOCCOc1cc(C(=O)N2C[C@@H](C(=O)N[C@H]3C[C@@H]3c3ccccc3)[C@H](C(=O)N[C@H]3C[C@@H]3c3ccccc3)C2)ccc1C(=O)N1C[C@@H](C(=O)N[C@H]2C[C@@H]2c2ccccc2)[C@H](C(=O)N[C@H]2C[C@@H]2c2ccccc2)C1 [Compound 148, tert-Butyl 3-(2-(2-(2-(2,5-Bis((3S,4S)-3,4-bis(((1S,2R)-2-phenyl-cyclopropyl)carbamoyl)-pyrrolidine-1-carbonyl)-phenoxy)ethoxy)ethoxy)-ethoxy)propanoate]	–	–	–	–	EC50 [1, 7]: 190 nM; EC50 [2, 8]: > 5000 nM
CC(C)(C)OC(=O)CCOCCOCCOCCNC(=O)COc1cc(C(=O)N2C[C@@H](C(=O)N[C@H]3C[C@@H]3c3ccccc3)[C@H](C(=O)N[C@H]3C[C@@H]3c3ccccc3)C2)ccc1C(=O)N1C[C@@H](C(=O)N[C@H]2C[C@@H]2c2ccccc2)[C@H](C(=O)N[C@H]2C[C@@H]2c2ccccc2)C1 [Compound 149, tert-Butyl 1-(2,5-Bis((3S,4S)-3,4-bis(((1S,2R)-2-phenylcyclopropyl)carbamoyl)pyrrolidine-1-carbonyl)phenoxy)-2-oxo-6,9,12-trioxa-3-azapentadecan-15-oate]	–	–	–	–	EC50 [1, 7]: 20 nM; EC50 [2, 8]: 150 nM
CC(C)(C)OC(=O)COCCOCCOCC(=O)Nc1cc(C(=O)N2C[C@@H](C(=O)N[C@H]3C[C@@H]3c3ccccc3)[C@H](C(=O)N[C@H]3C[C@@H]3c3ccccc3)C2)ccc1C(=O)N1C[C@@H](C(=O)N[C@H]2C[C@@H]2c2ccccc2)[C@H](C(=O)N[C@H]2C[C@@H]2c2ccccc2)C1 [Compound 150, tert-Butyl 2-(2-(2-(2-((2,5-Bis((3S,4S)-3,4-bis(((1S,2R)-2-phenylcyclopropyl)carbamoyl)-pyrrolidine-1-carbonyl)phenyl)amino)-2-oxoethoxy)ethoxy)ethoxy)acetate]	–	–	–	–	EC50 [1, 7]: 15 nM; EC50 [2, 8]: 130 nM

More lines, main results first:

EC50 [1, 3]	EC50 [2, 4]	EC50 [1, 5]	EC50 [2, 6]	SMILES	also measured
2.5 nM	1000 nM	–	–	CCCCCCCCCCCCCCCCNC(=O)[C@@H]1CN(C(=O)c2ccc(C(=O)N3C[C@@H](C(=O)N[C@H]4C[C@@H]4c4ccccc4)[C@H](C(=O)N[C@H]4C[C@@H]4c4ccccc4)C3)cc2)C[C@H]1C(=O)NCCCCCCCCCCCCCCCC [Compound 133, (3S,4S)-1-(4-((3S,4S)-3,4-Bis(((1S,2R)-2-phenyl-cyclopropyl)carbamoyl)pyrrolidine-1-carbonyl)-benzoyl)-N^3,N^4-dihexadecylpyrrolidine-3,4-dicarboxamide]	–
1.3 nM	620 nM	–	–	CCCCCCCCCCCCCCNC(=O)[C@@H]1CN(C(=O)c2ccc(C(=O)N3C[C@@H](C(=O)N[C@H]4C[C@@H]4c4ccccc4)[C@H](C(=O)N[C@H]4C[C@@H]4c4ccccc4)C3)cc2)C[C@H]1C(=O)NCCCCCCCCCCCCCC [Compound 134, (3S,4S)-1-(4-((3S,4S)-3,4-Bis(((1S,2R)-2-phenylcyclopropyl)carbamoyl)pyrrolidine-1-carbonyl)benzoyl)-N^3,N^4-ditetradecylpyrrolidine-3,4-dicarboxamide]	–
1 nM	1000 nM	–	–	CCCCCCCCCCCCNC(=O)[C@@H]1CN(C(=O)c2ccc(C(=O)N3C[C@@H](C(=O)N[C@H]4C[C@@H]4c4ccccc4)[C@H](C(=O)N[C@H]4C[C@@H]4c4ccccc4)C3)cc2)C[C@H]1C(=O)NCCCCCCCCCCCC [Compound 135, (3S,4S)-1-(4-((3S,4S)-3,4-Bis(((1S,2R)-2-phenylcyclopropyl)carbamoyl)pyrrolidine-1-carbonyl)benzoyl)-N^3,N^4-didodecylpyrrolidine-3,4-dicarboxamide]	–
0.28 nM	60 nM	–	–	CCCCCCCCCCNC(=O)[C@@H]1CN(C(=O)c2ccc(C(=O)N3C[C@@H](C(=O)N[C@H]4C[C@@H]4c4ccccc4)[C@H](C(=O)N[C@H]4C[C@@H]4c4ccccc4)C3)cc2)C[C@H]1C(=O)NCCCCCCCCCC [Compound 136, (3S,4S)-1-(4-((3S,4S)-3,4-Bis(((1S,2R)-2-phenylcyclopropyl)carbamoyl)pyrrolidine-1-carbonyl)benzoyl)-N^3,N^4-didecylpyrrolidine-3,4-dicarboxamide]	–
0.17 nM	10 nM	–	–	CCCCCCCCNC(=O)[C@@H]1CN(C(=O)c2ccc(C(=O)N3C[C@@H](C(=O)N[C@H]4C[C@@H]4c4ccccc4)[C@H](C(=O)N[C@H]4C[C@@H]4c4ccccc4)C3)cc2)C[C@H]1C(=O)NCCCCCCCC [Compound 137, (3S,4S)-1-(4-((3S,4S)-3,4-Bis(((1S,2R)-2-phenylcyclopropyl)carbamoyl)pyrrolidine-1-carbonyl)benzoyl)-N^3,N^4-dioctylpyrrolidine-3,4-dicarboxamide]	–
0.18 nM	4 nM	–	–	CCCCCCNC(=O)[C@@H]1CN(C(=O)c2ccc(C(=O)N3C[C@@H](C(=O)N[C@H]4C[C@@H]4c4ccccc4)[C@H](C(=O)N[C@H]4C[C@@H]4c4ccccc4)C3)cc2)C[C@H]1C(=O)NCCCCCC [Compound 138, (3S,4S)-1-(4-((3S,4S)-3,4-Bis(((1S,2R)-2-phenylcyclopropyl)carbamoyl)-pyrrolidine-1-carbonyl)benzoyl)-N^3,N^4-dihexylpyrrolidine-3,4-dicarboxamide]	EC50 ([1]; THP-1, running text, read-out: EC50, stimulated release of TNF-α from differentiated human THP-1 cells): 0.18 nM; fold less active/potent than diprovocim-1 (3) ([1]; human THP-1 cells): 2 fold; potency differential human THP-1 cells versus mouse macrophages ([1]; ratio of mouse to human potency): 20 fold; EC50 ([2]; Mus musculus, read-out: EC50, stimulated release of TNF-α from mouse macrophages): 4 nM; fold less potent/effective than diprovocim-1 ([2]; mouse macrophages): 4 fold
50 nM	360 nM	–	–	CCCCNC(=O)[C@@H]1CN(C(=O)c2ccc(C(=O)N3C[C@@H](C(=O)N[C@H]4C[C@@H]4c4ccccc4)[C@H](C(=O)N[C@H]4C[C@@H]4c4ccccc4)C3)cc2)C[C@H]1C(=O)NCCCC [Compound 139, (3S,4S)-1-(4-((3S,4S)-3,4-Bis(((1S,2R)-2-phenylcyclopropyl)carbamoyl)pyrrolidine-1-carbonyl)benzoyl)-N^3,N^4-dibutylpyrrolidine-3,4-dicarboxamide]	–
–	–	> 5000 nM	> 5000 nM	CCCCCCCCCCNC(=O)[C@@H]1CN(C(=O)c2ccc(C(=O)N3C[C@@H](C(=O)NCCCCCCCCCC)[C@H](C(=O)NCCCCCCCCCC)C3)cc2)C[C@H]1C(=O)NCCCCCCCCCC [Compound 143, (3S,3′S,4S,4′S)-1,1′-Terephthaloylbis(N^3,N^4-didecylpyrrolidine-3,4-dicarboxamide)]	–
